One block for each compound: values may come before it. The source made the active and inactive calls.
How the values were obtained:
Cytochrome P450 1A2 = target: T1, Cytochrome P450 1A2 (Homo sapiens, UniProt P05177);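 note: PubChem cytochrome P450 panel assay, CYP1A2 panel member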
T1 sequence (P05177 whole entry): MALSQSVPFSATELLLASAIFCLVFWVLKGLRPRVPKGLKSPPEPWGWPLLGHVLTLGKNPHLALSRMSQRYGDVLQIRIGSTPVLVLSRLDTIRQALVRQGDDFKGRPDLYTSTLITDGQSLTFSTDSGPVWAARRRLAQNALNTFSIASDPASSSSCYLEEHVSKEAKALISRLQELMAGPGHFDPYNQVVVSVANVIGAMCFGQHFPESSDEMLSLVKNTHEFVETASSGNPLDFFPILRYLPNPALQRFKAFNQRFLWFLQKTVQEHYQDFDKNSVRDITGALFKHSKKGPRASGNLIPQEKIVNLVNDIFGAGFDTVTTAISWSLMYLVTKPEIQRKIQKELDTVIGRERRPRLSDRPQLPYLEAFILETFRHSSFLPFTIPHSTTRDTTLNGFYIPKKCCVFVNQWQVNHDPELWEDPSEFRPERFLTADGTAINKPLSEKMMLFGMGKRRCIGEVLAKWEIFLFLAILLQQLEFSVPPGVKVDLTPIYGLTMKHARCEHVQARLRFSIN

Cytochrome P450 3A4 = Cytochrome P450 3A4 (Homo sapiens, UniProt P08684);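 note: CYP3A4 tested as one member of a cytochrome P450 panel screen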
[1] = target: Nucleotide-binding oligomerization domain-containing protein 2 (Homo sapiens, UniProt Q9HC29); assay: NOD2 signaling inhibitors, cell-based, luminescence, uHTS, HEK293 (AID 1566); format: functional
HEK293 [2] = assay: NOD2 signaling inhibitors in MDP-stimulated cells, cell-based, uHTS, luminescence (AID 2001); format: functional; conditions: Homo sapiens
HEK293 [3] = assay: cells; format: functional, cell-based; conditions: Homo sapiens
HEK293 [4] = assay: cells; format: functional, cell-based; conditions: Homo sapiens; remark: listed apart in the source
HEK293 [5] = assay: NOD1 signaling inhibitors, primary screen, cell-based, luminescence, uHTS (AID 1578); format: functional; conditions: Homo sapiens
HEK293 [6] = assay: cells; format: functional, cell-based; conditions: Homo sapiens; remark: listed apart in the source
Cytochrome P450 2C19 = Cytochrome P450 2C19 (Homo sapiens, UniProt P33261); assay: Cytochrome panel assay with activity outcomes. Panel member name: p450-cyp2c19 Compounds with AC50 equal or less than 10 uM are considered active; format: functional
HEK293 [7] = assay: inhibitors of LMP1-driven NF-kB reporter, dose response, cell-based, HEK293, luciferase, cherry-pick (AID 588343); format: functional; conditions: Homo sapiens
[8] = target: Dual specificity tyrosine-phosphorylation-regulated kinase 1A (Rattus norvegicus, UniProt Q63470); format: biochemical, Homo sapiens
[9] = growth suppression of PTEN-null colon cells, dose response, cell-based, HCT116 PTEN knockout (AID 1047); format: functional;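 note: HCT116 colon tumor cells with PTEN knocked out; cells exposed to compound for 60 hours before readout; potency for loss of cell viability measured by luminescence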
[10] = growth suppression of beta-catenin-knockout colon cells, dose response, cell-based, HCT116, human colon tumor (AID 1045); format: functional;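 note: HCT116 colon tumor cells with beta catenin knocked out; cells exposed to compound for 60 hours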
[11] = target: DNA damage-inducible transcript 3 protein (Mus musculus, UniProt P35639); format: functional, Cricetulus griseus
Sequence of DNA damage-inducible transcript 3 protein (P35639 whole entry): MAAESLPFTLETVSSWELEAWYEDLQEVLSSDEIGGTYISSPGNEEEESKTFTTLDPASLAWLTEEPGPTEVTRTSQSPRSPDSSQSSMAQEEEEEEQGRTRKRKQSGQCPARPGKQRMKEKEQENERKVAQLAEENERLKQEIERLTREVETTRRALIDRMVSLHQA

Sequence of Cytochrome P450 3A4 (P08684 whole entry, the tested form may be a part): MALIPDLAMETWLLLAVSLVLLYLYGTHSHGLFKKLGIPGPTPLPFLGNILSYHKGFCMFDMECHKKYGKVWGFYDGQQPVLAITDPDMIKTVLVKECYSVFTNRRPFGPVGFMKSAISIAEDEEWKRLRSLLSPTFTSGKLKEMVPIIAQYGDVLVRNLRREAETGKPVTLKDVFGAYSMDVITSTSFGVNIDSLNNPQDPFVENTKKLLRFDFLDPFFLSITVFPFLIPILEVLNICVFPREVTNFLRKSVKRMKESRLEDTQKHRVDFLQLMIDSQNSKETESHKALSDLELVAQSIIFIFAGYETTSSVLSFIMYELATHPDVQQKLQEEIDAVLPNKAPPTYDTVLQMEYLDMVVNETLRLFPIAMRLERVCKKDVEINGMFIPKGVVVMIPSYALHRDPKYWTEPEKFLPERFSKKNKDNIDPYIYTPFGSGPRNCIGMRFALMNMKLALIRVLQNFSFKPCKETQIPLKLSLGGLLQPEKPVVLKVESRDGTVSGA
Sequence of Nucleotide-binding oligomerization domain-containing protein 2 (Q9HC29 whole entry, the tested form may be a part): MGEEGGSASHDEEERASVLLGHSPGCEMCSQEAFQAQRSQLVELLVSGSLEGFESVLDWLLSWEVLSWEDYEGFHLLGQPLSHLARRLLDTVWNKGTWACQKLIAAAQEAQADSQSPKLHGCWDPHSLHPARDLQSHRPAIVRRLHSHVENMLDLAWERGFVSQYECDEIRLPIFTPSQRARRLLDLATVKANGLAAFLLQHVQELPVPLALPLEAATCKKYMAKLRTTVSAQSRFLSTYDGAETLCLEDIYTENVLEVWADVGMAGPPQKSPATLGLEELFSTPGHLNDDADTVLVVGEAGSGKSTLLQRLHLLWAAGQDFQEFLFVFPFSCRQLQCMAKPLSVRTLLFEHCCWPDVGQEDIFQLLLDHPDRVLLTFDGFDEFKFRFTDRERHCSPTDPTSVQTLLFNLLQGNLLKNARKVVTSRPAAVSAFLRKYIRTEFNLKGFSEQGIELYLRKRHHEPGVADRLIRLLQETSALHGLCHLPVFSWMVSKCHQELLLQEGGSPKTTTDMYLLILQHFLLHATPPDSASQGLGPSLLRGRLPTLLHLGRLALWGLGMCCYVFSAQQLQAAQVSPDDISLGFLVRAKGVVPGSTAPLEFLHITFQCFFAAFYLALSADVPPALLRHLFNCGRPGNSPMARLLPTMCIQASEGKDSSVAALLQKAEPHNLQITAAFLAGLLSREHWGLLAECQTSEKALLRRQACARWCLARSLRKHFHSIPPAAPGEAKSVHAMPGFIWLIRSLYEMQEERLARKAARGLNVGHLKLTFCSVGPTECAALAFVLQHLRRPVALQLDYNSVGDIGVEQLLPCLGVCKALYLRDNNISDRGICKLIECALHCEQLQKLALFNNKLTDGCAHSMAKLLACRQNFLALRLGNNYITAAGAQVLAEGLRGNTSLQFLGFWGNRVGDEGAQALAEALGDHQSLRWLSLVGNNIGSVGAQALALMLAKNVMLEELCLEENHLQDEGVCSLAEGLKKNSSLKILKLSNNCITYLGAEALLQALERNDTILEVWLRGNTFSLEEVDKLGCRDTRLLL
Sequence of Cytochrome P450 2C19 (P33261 whole entry): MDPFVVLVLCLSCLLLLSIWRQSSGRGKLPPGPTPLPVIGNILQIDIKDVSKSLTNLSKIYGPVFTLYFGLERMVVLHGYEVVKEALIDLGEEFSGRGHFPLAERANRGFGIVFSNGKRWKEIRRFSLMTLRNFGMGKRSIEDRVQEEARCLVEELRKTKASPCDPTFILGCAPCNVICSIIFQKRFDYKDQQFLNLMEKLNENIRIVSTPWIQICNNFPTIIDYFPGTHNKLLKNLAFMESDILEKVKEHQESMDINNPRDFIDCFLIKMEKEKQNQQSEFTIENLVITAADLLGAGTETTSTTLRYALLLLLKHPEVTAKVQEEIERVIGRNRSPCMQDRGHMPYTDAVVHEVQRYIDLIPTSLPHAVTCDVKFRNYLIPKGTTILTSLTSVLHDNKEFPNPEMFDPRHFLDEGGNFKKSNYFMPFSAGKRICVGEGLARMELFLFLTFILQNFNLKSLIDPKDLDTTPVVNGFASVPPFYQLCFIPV

AC50 (Cytochrome P450 1A2): 0.251 µM (inconclusive)
AC50 (Cytochrome P450 3A4): inconclusive
SMILES: Cn1c(=O)c(-c2ccc(Cl)cc2)nc2cnc(Oc3cccc(Cl)c3)nc21

SMILES: CCN(C(=O)c1cnc(N2CCN(c3ncccn3)CC2)c2ccccc12)c1cccc(Cl)c1
AC50 (Cytochrome P450 1A2): 15.8 µM (inconclusive)
EC50 [1]: 7.19 µM (active)
IC50 (HEK293 [2]): 4.17 µM (active)
IC50 (HEK293 [3]): 8.34 µM (active)
IC50 (HEK293 [4]): 3.5 µM (active)
EC50 (HEK293 [5]): 5.39 µM (active)
IC50 (HEK293 [6]): > 20 µM (inactive)

AC50 (Cytochrome P450 1A2): 39.8 µM (inconclusive)
AC50 (Cytochrome P450 3A4): inconclusive
SMILES: CCOC(=O)N1CCN(C(=O)c2ccc3c(=O)n(-c4ccc(OC)cc4)c(=S)[nH]c3c2)CC1

AC50 (Cytochrome P450 2C19): inconclusive
AC50 (Cytochrome P450 3A4): inconclusive
SMILES: O=C(Nc1nnc(COc2ccc(Cl)cc2)s1)c1ccc([N+](=O)[O-])cc1

AC50 (Cytochrome P450 3A4): inconclusive
SMILES: C#C[C@@]1(OC(C)=O)CC[C@@H]2[C@@H]3CCC4=C[C@@H](OC(C)=O)CC[C@H]4[C@H]3CC[C@]21C

SMILES: CC1(C)Cc2nc3sc4c(SCC(=O)O)ncnc4c3cc2CO1
AC50 (HEK293 [7]): 4.58 µM (active)
AC50 [8]: 2.6 µM (active)

SMILES: CSc1nc(O)c2cnn(-c3ccc(C)c(C)c3)c2n1
EC50 [9]: 26.2 µM (active)
EC50 [10]: 27.6 µM (active)
Absolute IC50 (CHOP) [11]: 10 µM

AC50 (Cytochrome P450 3A4): inconclusive
SMILES: O=C(c1cnccn1)N1CCC2(CC1)CN(c1ccccn1)C2

Reference: ChEMBL document CHEMBL1201862, “PubChem BioAssay data set” (2004)
